The record followed here is patent publication US20260215425A1, “NITRIFICATION INHIBITORS” (The University of Melbourne, priority 2022, published 2026).

The subject of assay [1] is N. europaea and N. multiformis. As to the kind of experiment: activity recovery assay (binding studies). The class given is cell-based. The conditions noted are these: [inhibitor]=1.5 mM, 30 min, then washed and re-incubated with (NH4)2SO4. As to the method: Cells were harvested using the ‘standard cell harvesting protocol’. The bacteria solution was adjusted to an OD600=0.8 (100 μg/L protein) and 980 μL aliquots were transferred to 1.5 mL centrifuge tubes (Eppendorf®, polypropylene). 10 μL of the inhibitor solution (150 mM in DMSO) was added and pre-equilibrated for 5 min; 10 μL of aqueous 150 mM (NH4)2SO4 (final concentration in tube=3 mM) was added by via multichannel pipette to ensure simultaneous addition in each tube. The tubes were incubated in a temperature-regulated rotary incubator (Ratek, Australia) for 30 min at 30° C. at 100 rpm in the dark. After 30 minutes, a 50 μL aliquot was transferred to a 96-well plate (Greiner Cellstar®, polystyrene), 50 μL of Griess reagent was added and the mixture incubated for 15 minutes. The absorbance was measured photometrically (Clariostar® BMG Labtech, Australia) at 540 nm. The cells were washed repeatedly (3×) by periodic centrifuging (Boeco, Germany; 10.000 rpm, 10 min) and resuspending the pellet in 1 mL NaPB. After the final centrifuging step, the pellet was resuspended in 990 μL NaPB and re-incubated with (NH4)2SO4 (10 μL of an aqueous 150 mM solution), and the NO2 concentration was measured under the previously described conditions. Each assay was accompanied by control treatments to determine the 0% and 100% NO2 signal. […]

The subject of assay [2] is soil A. Put plainly: soil incubation, NH4+ and NO3- in soil A. The note with it: 21 days. How it is done: Soils used in these studies were air-dried, ground and sieved (2 mm) prior to use. Soil microcosm incubations were carried out in 250 mL polypropylene specimen containers (Sarstedt, Germany), containing 20 g oven dry-weight equivalent of soil. Microcosms were treated with half the volume of water required to meet the desired water-filled pore space (WFPS %) of 60% and pre-incubated at 25° C. for seven days to revive soil microbial activity. Following pre-incubation, the remaining volume to reach the WFPS % was applied as one of the treatment solutions: (1) fertiliser ((NH4)2SO4,) 100 mg kg^−1, (2) fertiliser+0.5 mol % 4-MPT, (3) fertiliser+2.5 mol % 4-MPT, (4) fertiliser+5 mol % 4-MPT or (5) fertiliser+5 mol % compound 1, with three replicates of each treatment per time interval (n=3). Throughout the incubation period soil microcosms were kept aerated by removing the lid for 10 minutes every 2-3 days to allow gas exchange, and moisture levels were replenished via addition of Milli-Q water as required. At the end of the desired incubation period (i.e., after 0, 3, 7, 14, and 21 days, respectively), soil microcosms were removed and destructively sampled by treating with 2 M aqueous potassium chloride solution (KCl, 100 mL) and shaking for 1 h. Soil-KCl solutions were filtered (Whatman No. 42), and the filtrates were stored at −20° C. until the conclusion of the experiment, when all KCl extracts were analysed for the concentration of soil mineral nitrogen from ammonium (NH4^+—N) and from nitrate (NO3^−—N; the conversion of NO2 to NO3^− in soils is very rapid) after appropriate dilutions using Segmented Flow Analysis (San++, Skalar, Breda, The Netherlands). Results are reported as the mean of three replicates, errors reported are standard errors of the mean. Errors associated with raw data were carried through calculations using standard error propagation protocols.
To determine the nitrification inhibitory effect of 4-MPT in vivo, soil incubations were performed by measuring concentration-time profiles for NH4^+ and NO3^− in an acidic Australian soil (soil A, pH=5.9) over 21 days. 4-MPT was tested at three different concentrations (0.5 mol %, 2.5 mol % and 5 mol % of applied fertiliser-N) and compared with the alkyl-substituted compound 1 (5 mol % of applied fertiliser-N) to confirm the requirement of the N-propargyl substitutent for inhibitory activity (FIG. 5).

With `C#CCn1cc(C)nn1` [Compound 4-MPT, 4-Methyl-1-(prop-2-yn-1yl)-1H-1,2,3-triazole], the “recovery of activity of cells after three washing steps” value in assay [1] is “could not be recovered”. Moreover, the “NH4+ loss / conversion in soil” value in assay [2] (0.5 mol % of applied fertiliser-N) is recorded as “noticeably delayed NH4^+ loss within the first 15 days”; in assay [2] (2.5 mol % of applied fertiliser-N), “quantitatively suppress NH4^+ conversion”; in assay [2] (5 mol % of applied fertiliser-N), “quantitatively suppress NH4^+ conversion”.
